Columns and labels:
[1] = Cmax in Wistar-Imamichi rat at 300 mg/kg, po via gavage once daily for 28 days measured on day 28 post dose; assay type: ADME, organism-based; set-up: dose 300 mg/kg, route oral; settings: in vivo
Rattus norvegicus [2] = assay: Toxicity in Wistar-Imamichi rat assessed as death at 30 to 300 mg/kg, po administered via gavage once daily for 28 days; assay type: organism-based; settings: in vivo, 672 h
[3] = Plasma concentration in hyperglycemic KK/Ta mouse at 30 mg/kg/day, po administered through diet for 3 days measured on day 3 post last dose; assay type: ADME, organism-based
[4] = Cmax in Wistar-Imamichi rat at 100 mg/kg, po via gavage once daily for 28 days measured on day 28 post dose; assay type: ADME, organism-based; set-up: dose 100 mg/kg, route oral; settings: in vivo
[5] = Cmax in Zucker diabetic fatty rat at 0.3 mg/kg, po dosed once daily for 14 days and followed by additional administeration on day 15; assay type: ADME, organism-based; set-up: dose 0.3 mg/kg, route oral; settings: in vivo
[6] = AUC (0 to 24 hrs) in Wistar-Imamichi rat at 30 mg/kg, po via gavage once daily for 28 days measured on day 28 post dose; assay type: ADME, organism-based; set-up: time < 24 hr, dose 30 mg/kg, route oral; settings: in vivo
[7] = Tmax in Zucker diabetic fatty rat at 0.3 mg/kg, po dosed once daily for 14 days and followed by additional administeration on day 15; assay type: ADME, organism-based; settings: in vivo
Mus musculus [8] = assay: Glucose-lowering effect in hyperglycemic KK/Ta mouse assessed as reduction in plasma glucose level at 30 mg/kg/day, po administered through diet for 3 days relative to control; assay type: functional; set-up: scale not given: the % may be the effect or the level left
Rattus norvegicus [9] = assay: Glucose-lowering effect in Zucker diabetic fatty rat assessed as reduction in plasma glucose level at 0.3 mg/kg, po administered once daily for 14 days measured on day 14 post last dose relative to control; assay type: functional; set-up: scale not given: the % may be the effect or the level left
[10] = AUC (0 to 24 hrs) in Zucker diabetic fatty rat at 30 mg/kg, po dosed once daily for 14 days and followed by additional administeration on day 15; assay type: ADME, organism-based; set-up: time < 24 hr, dose 30 mg/kg, route oral; settings: in vivo
[11] = AUC (0 to 24 hrs) in Wistar-Imamichi rat at 0.3 mg/kg, po via gavage once daily for 28 days measured on day 28 post dose; assay type: ADME, organism-based; set-up: time < 24 hr, dose 0.3 mg/kg, route oral; settings: in vivo
Rattus norvegicus [12] = assay: Toxicity in Wistar-Imamichi rat assessed as clinical abnormality at 30 to 300 mg/kg, po administered via gavage once daily for 28 days; assay type: organism-based; settings: in vivo, 672 h
[13] = Tmax in Zucker diabetic fatty rat at 30 mg/kg, po dosed once daily for 14 days and followed by additional administeration on day 15; assay type: ADME, organism-based; settings: in vivo
[14] = biological target: T1, Peroxisome proliferator-activated receptor alpha (Homo sapiens, UniProt Q07869); assay: Agonist activity at recombinant human GAL4-DBD fused PPARalpha LBD expressed in COS7 cells after 24 hrs by luciferase reporter gene assay; assay type: cell-based
T1 sequence (Q07869 whole entry): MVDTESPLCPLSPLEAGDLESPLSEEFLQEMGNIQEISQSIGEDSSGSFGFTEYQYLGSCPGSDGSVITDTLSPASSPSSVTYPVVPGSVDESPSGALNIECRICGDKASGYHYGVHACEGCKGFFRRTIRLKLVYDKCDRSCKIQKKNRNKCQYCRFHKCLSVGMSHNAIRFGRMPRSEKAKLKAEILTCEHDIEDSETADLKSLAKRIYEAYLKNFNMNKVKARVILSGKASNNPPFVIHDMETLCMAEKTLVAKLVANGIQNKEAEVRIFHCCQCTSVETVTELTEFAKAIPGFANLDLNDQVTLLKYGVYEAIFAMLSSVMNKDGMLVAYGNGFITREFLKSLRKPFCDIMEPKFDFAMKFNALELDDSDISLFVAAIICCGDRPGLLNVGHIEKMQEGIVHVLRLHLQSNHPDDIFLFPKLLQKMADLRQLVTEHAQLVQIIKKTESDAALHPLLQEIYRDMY

[15] = Tmax in Wistar-Imamichi rat at 300 mg/kg, po via gavage once daily for 28 days measured on day 28 post dose; assay type: ADME, organism-based; settings: in vivo
[16] = AUC (0 to 24 hrs) in Wistar-Imamichi rat at 100 mg/kg, po via gavage once daily for 28 days measured on day 28 post dose; assay type: ADME, organism-based; set-up: time < 24 hr, dose 100 mg/kg, route oral; settings: in vivo
Rattus norvegicus [17] = assay: Toxicity in Wistar-Imamichi rat assessed as reduction in RBC count at 30 to 300 mg/kg, po administered via gavage once daily for 28 days; assay type: organism-based; settings: in vivo, 672 h
Rattus norvegicus [18] = assay: Toxicity in Wistar-Imamichi rat assessed as histopathological changes in liver at 30 to 300 mg/kg, po administered via gavage once daily for 28 days; assay type: organism-based; settings: in vivo, 672 h
Rattus norvegicus [19] = assay: Glucose-lowering effect in Zucker diabetic fatty rat assessed as reduction in plasma glucose level at 3 mg/kg, po administered once daily for 14 days measured on day 14 post last dose relative to control; assay type: functional; set-up: scale not given: the % may be the effect or the level left
Rattus norvegicus [20] = assay: Toxicity in Wistar-Imamichi rat assessed as elevation in AST activity at 30 to 300 mg/kg, po administered via gavage once daily for 28 days; assay type: organism-based; settings: in vivo, 672 h
[21] = Tmax in Wistar-Imamichi rat at 30 mg/kg, po via gavage once daily for 28 days measured on day 28 post dose; assay type: ADME, organism-based; settings: in vivo
[22] = Cmax in Zucker diabetic fatty rat at 3 mg/kg, po dosed once daily for 14 days and followed by additional administeration on day 15; assay type: ADME, organism-based; set-up: dose 3 mg/kg, route oral; settings: in vivo
[23] = AUC (0 to 24 hrs) in Zucker diabetic fatty rat at 3 mg/kg, po dosed once daily for 14 days and followed by additional administeration on day 15; assay type: ADME, organism-based; set-up: dose 3 mg/kg, time < 24 hr, route oral; settings: in vivo
[24] = Tmax in Zucker diabetic fatty rat at 3 mg/kg, po dosed once daily for 14 days and followed by additional administeration on day 15; assay type: ADME, organism-based; settings: in vivo
[25] = Cmax in Zucker diabetic fatty rat at 30 mg/kg, po dosed once daily for 14 days and followed by additional administeration on day 15; assay type: ADME, organism-based; set-up: dose 30 mg/kg, route oral; settings: in vivo
Rattus norvegicus [26] = assay: Glucose-lowering effect in Zucker diabetic fatty rat assessed as reduction in plasma glucose level at 30 mg/kg, po administered once daily for 14 days measured on day 14 post last dose relative to control; assay type: functional; set-up: scale not given: the % may be the effect or the level left
Rattus norvegicus [27] = assay: Toxicity in Wistar-Imamichi rat assessed as effect on hemodilution by measuring increase in heart weight at 300 mg/kg, po administered via gavage once daily for 28 days; assay type: organism-based; settings: in vivo, 672 h
Rattus norvegicus [28] = assay: Toxicity in Wistar-Imamichi rat assessed as effect on hematocrit at 30 to 300 mg/kg, po administered via gavage once daily for 28 days; assay type: organism-based; settings: in vivo, 672 h
[29] = Cmax in Wistar-Imamichi rat at 0.3 mg/kg, po via gavage once daily for 28 days measured on day 28 post dose; assay type: ADME, organism-based; set-up: dose 0.3 mg/kg, route oral; settings: in vivo
[30] = AUC (0 to 24 hrs) in Zucker diabetic fatty rat at 0.3 mg/kg, po dosed once daily for 14 days and followed by additional administeration on day 15; assay type: ADME, organism-based; set-up: time < 24 hr, dose 0.3 mg/kg, route oral; settings: in vivo
Rattus norvegicus [31] = assay: Toxicity in Zucker diabetic fatty rat assessed as body weight gain at 0.3 mg/kg, po administered once daily for 14 days relative to control; assay type: organism-based; settings: in vivo, 336 h
[32] = Cmax in Wistar-Imamichi rat at 30 mg/kg, po via gavage once daily for 28 days measured on day 28 post dose; assay type: ADME, organism-based; set-up: dose 30 mg/kg, route oral; settings: in vivo
Rattus norvegicus [33] = assay: Toxicity in Zucker diabetic fatty rat assessed as body weight gain at 30 mg/kg, po administered once daily for 14 days relative to control; assay type: organism-based; settings: in vivo, 336 h
Rattus norvegicus [34] = assay: Toxicity in Zucker diabetic fatty rat assessed as body weight gain administered orally once daily for 14 day; assay type: organism-based; settings: in vivo, po, 336 h
[35] = AUC (0 to 24 hrs) in Wistar-Imamichi rat at 300 mg/kg, po via gavage once daily for 28 days measured on day 28 post dose; assay type: ADME, organism-based; set-up: dose 300 mg/kg, time < 24 hr, route oral; settings: in vivo
Rattus norvegicus [36] = assay: Toxicity in Wistar-Imamichi rat assessed as elevation in ALT activity at 30 to 300 mg/kg, po administered via gavage once daily for 28 days; assay type: organism-based; settings: in vivo, 672 h
Rattus norvegicus [37] = assay: Toxicity in Zucker diabetic fatty rat assessed as body weight gain at 3 mg/kg, po administered once daily for 14 days relative to control; assay type: organism-based; settings: in vivo, 336 h
[38] = Metabolic stability in rat liver microsomes after 0.5 hrs; assay type: ADME, microsome; settings: read-out: Stability
Mus musculus [39] = assay: Toxicity in hyperglycemic KK/Ta mouse assessed as body weight gain at 30 mg/kg/day, po administered through diet for 3 days relative to control; assay type: organism-based; settings: in vivo, 72 h
[40] = Tmax in Wistar-Imamichi rat at 100 mg/kg, po via gavage once daily for 28 days measured on day 28 post dose; assay type: ADME, organism-based; settings: in vivo

## Cn1c(COc2cccc(C(=O)O)c2)nc2ccc(Oc3ccc(Cl)c(F)c3)cc21
[1]
  Cmax: 22600 ng/mL
Rattus norvegicus [2]
  Activity: Non-Toxic
[3]
  concentration at 72 h: 570 ng/mL
[4]
  Cmax: 14900 ng/mL
[5]
  Cmax: 180 ng/mL
[6]
  AUC at 24 h: 93700 ng·h/mL
[7]
  Tmax: 6.8 h
Mus musculus [8]
  Activity: 43.2%
Rattus norvegicus [9]
  Activity: 16.6%
[10]
  AUC at 24 h: 55800 ng·h/mL
[11]
  AUC at 24 h: 1740 ng·h/mL
Rattus norvegicus [12]
  Activity: Non-Toxic
[13]
  Tmax: 2 h
[14]
  EC50: > 10 µM
[15]
  Tmax: 3 h
[16]
  AUC at 24 h: 192000 ng·h/mL
Rattus norvegicus [17]
  Activity: Non-Toxic
Rattus norvegicus [18]
  Activity: Non-Toxic
Rattus norvegicus [19]
  Activity: 43.8%
Rattus norvegicus [20]
  Activity: Toxic
[21]
  Tmax: 4 h
[22]
  Cmax: 920 ng/mL
[23]
  AUC at 24 h: 6750 ng·h/mL
[24]
  Tmax: 2.4 h
[25]
  Cmax: 8080 ng/mL
Rattus norvegicus [26]
  Activity: 74.9%
Rattus norvegicus [27]
  Activity: 9.9%
Rattus norvegicus [28]
  Activity: Non-Toxic
[29]
  Cmax: 180 ng/mL
[30]
  AUC at 24 h: 1740 ng·h/mL
Rattus norvegicus [31]
  Activity: 2.3%
[32]
  Cmax: 9100 ng/mL
Rattus norvegicus [33]
  Activity: 16.7%
Rattus norvegicus [34]
  Activity: Dose-dependent effect
[35]
  AUC at 24 h: 190000 ng·h/mL
Rattus norvegicus [36]
  Activity: Toxic
Rattus norvegicus [37]
  Activity: 12.4%
[38]
  remaining at 0.5 h: 94%
Mus musculus [39]
  Activity: 4.4%
[40]
  Tmax: 5 h
